According to US20260207633A1, “COMPOSITION COMPRISING POLAR LIPIDS AND METHOD OF MAKING SAME” (VAXA TECHNOLOGIES LTD, priority 2021, published 2026):

Experiments:
[1] = tested on: participants with poor sleeping quality (PSQI 11-13); experiment: Sleep quality tracked monthly with the Pittsburgh Sleep Quality Index (PSQI), 6 groups of 3 participants; type: in vivo, human; conditions: for PSQI M3: global PSQI score at month 3; for PSQI M3 / PSQI M4: With CBD (daily dosage per group, the 2nd table r16-r22); for PSQI M4: global PSQI score at month 4; for ΔPSQI (%): improvement of PSQI from M0 to M4
Protocol: Some experiment showing the effect of the combination of CBD and four different omega-3 compounds (Fish Oil (Non-polar DHA+EPA), Fish oil (Non-polar EPA), Schizochytrium Oil (Non-Polar DHA), Nannochloropsis Oil (polar EPA)) were conducted. Daily dosage of omega 3 (DHA and/or EPA) was […].
Materials: CBD: Fish oil (non-polar DHA+EPA), Schizochytrium Oil (non-polar DHA), Nannochloropsis Oil (polar-EPA), Fish oil (non-polar EPA).
Experimental Design: Sleep quality was the measured in this study, as an efficacy indication. The experiment included 6 groups (3 participants per group) 8 women and 10 men, with similar Pittsburgh Sleep Quality Index (PSQI) rating (11-13), indicating poor sleeping quality. The average age for the participants was 37.2. All 18 participants completed sleep assessments at the onset of CBD treatment and at the monthly follow-ups.
All participants were given CBD and/or Omega 3 every evening, after dinner, per table 1 below. Sleep quality was tracked on a monthly basis, for a period of up to 4 months, using the PSQI. This Index is a self-report measure that assesses the quality of sleep during a 1-month period. […] The PSQI measures several different aspects of sleep, offering seven component scores and one composite score. The component scores consist of subjective sleep quality, sleep latency (i.e., how long it takes to fall asleep), sleep duration, habitual sleep efficiency (i.e., the percentage of time in bed that one is asleep), sleep disturbances, use of sleeping medication, and daytime dysfunction.
Each item is weighted on a 0-3 interval scale. The global PSQI score was calculated by totaling the seven component scores, providing an overall score ranging from 0 to 21, where lower scores denote a healthier sleep quality. A higher number indicates more sleep-related concerns. A score of 5 or greater indicates a “poor sleeper”.

[2] = tested on: individuals with insomnia; conditions: cited from earlier work

Compound	PSQI M3 [1]	PSQI M4 [1]	ΔPSQI (%) [1] [%]	improvement of PSQI score, months 3-4 ([1]; months with CBD)	frequency of arousals during the night ([2]; high-dose (160 mg/day) CBD)	total sleep time ([2]; high-dose (160 mg/day) CBD)	wakefulness ([2]; low-dose CBD)	effect on PSQI score / sleep quality, in words ([1]; comparison between groups)	Sedation ([1]; sedation effect Y/N during CBD treatment, listed as High-dose CBD)
C=C(C)[C@@H]1CCC(C)=C[C@H]1c1c(O)cc(CCCCC)cc1O [Group B, Cannabidiol]	11.3	9.3	24	~ 18%					
C=C(C)[C@@H]1CCC(C)=C[C@H]1c1c(O)cc(CCCCC)cc1O [CBD, Cannabidiol]					decreased the frequency of arousals during the night	increased total sleep time	increased wakefulness		
C=C(C)[C@@H]1CCC(C)=C[C@H]1c1c(O)cc(CCCCC)cc1O [Group A, Cannabidiol]	6.7	4.6	62					more efficient that low-dose CBD in improving PSQI score	had a sedation effect
